{
  "source": "patent US8299271B2",
  "about": "“Solid tartrate salts of DPP-IV inhibitors” (priority 2006, dated 2012)",
  "key": {"[1]": {"test": "Salt preparation: isolation of solid salts of the pyrrolidine compound", "format": "physicochemical", "settings": "acid plus free base in IPA, filtration, MTBE"}, "[2]": {"test": "Chemical stability by HPLC", "format": "physicochemical", "protocol": "In addition, the solutions before spraying and the spray dried product were analyzed for purity by HPLC using the following method. A Waters Symmetry C18 (3.0×150 mm, 3.5 um) column was used. […] Column temperature was 60° C., and the detection wavelength was 210 nm. The injection volume was 15 μL; flow rate was 1.0 mL/minute for a run time of 70 minutes. The gradient was as follows: Chemical Stability. Chemical stability was determined using HPLC. […] The chemical stability of the tartrate salt and the free base was also determined after one and three months at 25° C., 40° C. and 60° C."}, "12 Month Stability Study": {"test": "12 Month Stability Study", "format": "physicochemical", "parameters": "Water: unit not given beside the values", "settings": "for decomposition on storage: 25° C."}, "[3]": {"test": "Chemical stability by HPLC", "format": "physicochemical", "settings": "45% RH for two months"}, "[4]": {"test": "Physical stability in humidity chambers", "text": "Physical Stability in Humidity Chambers. […] Samples were weighed hourly at first, and then on daily intervals."}, "[5]": {"settings": "3 months at 40° C., listed as Tartrate"}, "[6]": {"settings": "12 months, T = 25° C., RH = 60%"}},
  "note": "Where a name gives a salt, the structure may show the parent alone.",
  "data": [
    {"molecule": "O=C(O)[C@@H](O)[C@H](O)C(=O)O", "note": "[D-tartrate]", "values": [
      {"measurement": "Comments (outcome of salt preparation)", "setting": "[1]; listed as D-Tartaric Acid", "result": "Good filterable solid"}
    ]},
    {"molecule": "O=C(CN[C@@H]1CCNC1)N1CCC[C@H]1B(O)O", "note": "[Free Base, (2R)-1-{7-[(9R)-pyrrolidin-9-ylamino]-acetyl}-pyrrolidine-2-boronic acid]", "values": [
      {"measurement": "Assay (%)", "setting": "[2]; 1 month at 40° C.", "result": 97, "unit": "%"},
      {"measurement": "Total Impurities (%)", "setting": "[2]; 1 month at 40° C.", "result": 15.4, "unit": "%"},
      {"measurement": "Assay (%)", "setting": "[2]; 3 months at 40° C.", "result": 50, "unit": "%"},
      {"measurement": "Total Impurities (%)", "setting": "[2]; 3 months at 40° C.", "result": 29.6, "unit": "%"},
      {"measurement": "Assay (%)", "setting": "[2]; Initial", "result": 96, "unit": "%"},
      {"measurement": "Total Impurities (%)", "setting": "[2]; Initial", "result": 7.6, "unit": "%"}
    ]},
    {"molecule": "O=C(CN[C@@H]1CCNC1)N1CCC[C@H]1B(O)O", "note": "[L-tartrate salt, (2R)-1-{7-[(9R)-pyrrolidin-9-ylamino]-acetyl}-pyrrolidine-2-boronic acid]", "values": [
      {"measurement": "Assay (%)", "setting": "[2]; 1 month at 60° C.", "result": 100, "unit": "%"},
      {"measurement": "Total Impurities (%)", "setting": "[2]; 1 month at 60° C.", "result": 5.8, "unit": "%"},
      {"measurement": "Assay (%)", "setting": "[2]; 3 months at 25° C.", "result": 99, "unit": "%"},
      {"measurement": "Total Impurities (%)", "setting": "[2]; 3 months at 25° C.", "result": 5.7, "unit": "%"},
      {"measurement": "Assay (%)", "setting": "[2]; [5]", "result": 97, "unit": "%"},
      {"measurement": "Total Impurities (%)", "setting": "[2]; [5]", "result": 5.9, "unit": "%"},
      {"measurement": "Assay (%)", "setting": "[2]; 3 months at 60° C.", "result": 92, "unit": "%"},
      {"measurement": "Total Impurities (%)", "setting": "[2]; 3 months at 60° C.", "result": 7.4, "unit": "%"},
      {"measurement": "Assay (%)", "setting": "[2]; Initial, listed as Tartrate", "result": 99, "unit": "%"},
      {"measurement": "Total Impurities (%)", "setting": "[2]; Initial, listed as Tartrate", "result": 6.5, "unit": "%"},
      {"measurement": "Assay (HPLC)", "setting": "12 Month Stability Study; 1 month, T = 5° C., RH = N/A", "result": 105.7},
      {"measurement": "Purity (HPLC)", "setting": "12 Month Stability Study; 1 month, T = 5° C., RH = N/A", "result": 98.1},
      {"measurement": "Water", "setting": "12 Month Stability Study; 1 month, T = 5° C., RH = N/A", "result": 9.8},
      {"measurement": "Assay (HPLC)", "setting": "12 Month Stability Study; 1 month, T = 25° C., RH = 60%", "result": 105.7},
      {"measurement": "Purity (HPLC)", "setting": "12 Month Stability Study; 1 month, T = 25° C., RH = 60%", "result": 98.1},
      {"measurement": "Water", "setting": "12 Month Stability Study; 1 month, T = 25° C., RH = 60%", "result": 9.9},
      {"measurement": "Assay (HPLC)", "setting": "12 Month Stability Study; 1 month, T = 40° C., RH = 75%", "result": 106.0},
      {"measurement": "Purity (HPLC)", "setting": "12 Month Stability Study; 1 month, T = 40° C., RH = 75%", "result": 98.2},
      {"measurement": "Water", "setting": "12 Month Stability Study; 1 month, T = 40° C., RH = 75%", "result": 10.0},
      {"measurement": "Assay (HPLC)", "setting": "12 Month Stability Study; 3 months, T = 5° C., RH = N/A", "result": 106.2},
      {"measurement": "Purity (HPLC)", "setting": "12 Month Stability Study; 3 months, T = 5° C., RH = N/A", "result": 98.0},
      {"measurement": "Water", "setting": "12 Month Stability Study; 3 months, T = 5° C., RH = N/A", "result": 9.6},
      {"measurement": "Assay (HPLC)", "setting": "12 Month Stability Study; 3 months, T = 25° C., RH = 60%", "result": 106.7},
      {"measurement": "Purity (HPLC)", "setting": "12 Month Stability Study; 3 months, T = 25° C., RH = 60%", "result": 98.1},
      {"measurement": "Water", "setting": "12 Month Stability Study; 3 months, T = 25° C., RH = 60%", "result": 9.4},
      {"measurement": "Assay (HPLC)", "setting": "12 Month Stability Study; 3 months, T = 40° C., RH = 75%", "result": 105.3},
      {"measurement": "Purity (HPLC)", "setting": "12 Month Stability Study; 3 months, T = 40° C., RH = 75%", "result": 97.9},
      {"measurement": "Water", "setting": "12 Month Stability Study; 3 months, T = 40° C., RH = 75%", "result": 9.2},
      {"measurement": "decomposition on storage", "setting": "12 Month Stability Study; 6 months at 75% RH", "result": "no detectable decomposition"},
      {"measurement": "Assay (HPLC)", "setting": "12 Month Stability Study; 6 months, T = 5° C., RH = N/A", "result": 104.6},
      {"measurement": "Purity (HPLC)", "setting": "12 Month Stability Study; 6 months, T = 5° C., RH = N/A", "result": 97.9},
      {"measurement": "Water", "setting": "12 Month Stability Study; 6 months, T = 5° C., RH = N/A", "result": 8.9},
      {"measurement": "Assay (HPLC)", "setting": "12 Month Stability Study; 6 months, T = 25° C., RH = 60%", "result": 105.9},
      {"measurement": "Purity (HPLC)", "setting": "12 Month Stability Study; 6 months, T = 25° C., RH = 60%", "result": 97.9},
      {"measurement": "Water", "setting": "12 Month Stability Study; 6 months, T = 25° C., RH = 60%", "result": 9.3},
      {"measurement": "Assay (HPLC)", "setting": "12 Month Stability Study; 6 months, T = 40° C., RH = 75%", "result": 105.6},
      {"measurement": "Purity (HPLC)", "setting": "12 Month Stability Study; 6 months, T = 40° C., RH = 75%", "result": 97.7},
      {"measurement": "Water", "setting": "12 Month Stability Study; 6 months, T = 40° C., RH = 75%", "result": 9.5},
      {"measurement": "Assay (HPLC)", "setting": "12 Month Stability Study; 9 months, T = 5° C., RH = N/A", "result": 106.7},
      {"measurement": "Purity (HPLC)", "setting": "12 Month Stability Study; 9 months, T = 5° C., RH = N/A", "result": 97.8},
      {"measurement": "Water", "setting": "12 Month Stability Study; 9 months, T = 5° C., RH = N/A", "result": 9.1},
      {"measurement": "Assay (HPLC)", "setting": "12 Month Stability Study; 9 months, T = 25° C., RH = 60%", "result": 107.3},
      {"measurement": "Purity (HPLC)", "setting": "12 Month Stability Study; 9 months, T = 25° C., RH = 60%", "result": 97.8},
      {"measurement": "Water", "setting": "12 Month Stability Study; 9 months, T = 25° C., RH = 60%", "result": 9.0},
      {"measurement": "decomposition on storage", "setting": "12 Month Stability Study; 12 months at 60% RH", "result": "no detectable decomposition"},
      {"measurement": "Assay (HPLC)", "setting": "12 Month Stability Study; 12 months, T = 5° C., RH = N/A", "result": 107.8},
      {"measurement": "Purity (HPLC)", "setting": "12 Month Stability Study; 12 months, T = 5° C., RH = N/A", "result": 98.0},
      {"measurement": "Water", "setting": "12 Month Stability Study; 12 months, T = 5° C., RH = N/A", "result": 9.3},
      {"measurement": "Assay (HPLC)", "setting": "12 Month Stability Study; [6]", "result": 107.7},
      {"measurement": "Purity (HPLC)", "setting": "12 Month Stability Study; [6]", "result": 97.9},
      {"measurement": "Water", "setting": "12 Month Stability Study; [6]", "result": 9.3},
      {"measurement": "change in chemical purity", "setting": "12 Month Stability Study; any of the conditions tested, 12 month study", "result": "substantially no change"},
      {"measurement": "Assay (HPLC)", "setting": "12 Month Stability Study; time = 0", "result": 105.1},
      {"measurement": "Purity (HPLC)", "setting": "12 Month Stability Study; time = 0", "result": 98.3},
      {"measurement": "Water", "setting": "12 Month Stability Study; time = 0", "result": 10.4},
      {"measurement": "solubility in water and alcohols", "result": "> 2000", "unit": "mg/mL"},
      {"measurement": "change in the purity (HPLC)", "setting": "[3]", "result": "Little or no change"},
      {"measurement": "hygroscopicity", "setting": "[4]", "result": "moderately hygroscopic"},
      {"measurement": "processability of the solid", "setting": "[4]; 63% relative humidity and room temperature for two months", "result": "remained a processable solid"},
      {"measurement": "physical behaviour of the solid at ambient conditions", "setting": "[4]; ambient conditions", "result": "remains a processable solid"},
      {"measurement": "flow properties", "setting": "[4]; open container, room temperature, 45% RH, two months", "result": "maintained good flow properties"},
      {"measurement": "processability of the solid", "setting": "[4]; several days at ambient temperature, relative humidity of 75%", "result": "remained a processable solid"}
    ]},
    {"molecule": "citrate", "values": [
      {"measurement": "Comments (outcome of salt preparation)", "setting": "[1]", "result": "Good filterable solid"},
      {"measurement": "stability at 63% RH", "setting": "[4]; 63% RH", "result": "stable"},
      {"measurement": "stability when submitted to 75% relative humidity", "setting": "[4]; 75% RH", "result": "not stable"}
    ]}
  ]
}
